In publication PMC11091879, “Inhibitors of the Thioesterase Activity of Mycobacterium tuberculosis Pks13 Discovered Using DNA-Encoded Chemical Library Screening” (ACS Infectious Diseases, 2024):

Assays:
Type in all cases: cell-based, Mycobacterium tuberculosis
[1] = tested on: H37Rv Pks13-TE R1563H mutant
[2] = tested on: WT H37Rv
[3] = tested on: H37Rv Pks13-TE V1687F mutant
[4] = tested on: H37Rv Pks13-TE Y1686C mutant
[5] = tested on: H37Rv Pks13-TE Y1674C mutant
[6] = tested on: H37Rv Pks13-TE A1561 V mutant
[7] = tested on: H37Rv Pks13-TE A1564D mutant
[8] = tested on: H37Rv Pks13-TE V1537A mutant
[9] = tested on: H37Rv Pks13-TE N1640K mutant

SMILES | Fold Change in MIC (Mutant MIC/WT H37Rv MIC) [1] [fold] | frequency of resistance (FOR) [2] | Fold Change in MIC (Mutant MIC/WT H37Rv MIC) [3] [fold] | Fold Change in MIC (Mutant MIC/WT H37Rv MIC) [4] [fold] | Fold Change in MIC (Mutant MIC/WT H37Rv MIC) [5] [fold] | Fold Change in MIC (Mutant MIC/WT H37Rv MIC) [6] [fold] | Fold Change in MIC (Mutant MIC/WT H37Rv MIC) [7] [fold] | Fold Change in MIC (Mutant MIC/WT H37Rv MIC) [8] [fold] | Fold Change in MIC (Mutant MIC/WT H37Rv MIC) [9] [fold]
COc1ccc(OC)c(-c2ccc(-c3cn(CCc4ccc(C(=O)N(C)C)cc4)nn3)cn2)c1 [X20404] | >63 | 4.7 × 10^–7 | >63 | 19 | >63 | 40 | >63 | >63 | 37
CO[C@H]1/C=C/O[C@@]2(C)Oc3c(C)c(O)c4c(O)c(c(/C=N/N5CCN(C)CC5)c(O)c4c3C2=O)NC(=O)/C(C)=C\C=C\[C@H](C)[C@H](O)[C@@H](C)[C@@H](O)[C@@H](C)[C@H](OC(C)=O)[C@@H]1C [Rifampicin, reference compound] | 0.9 | – | 1.2 | 1 | 1.6 | 1.2 | 0.8 | 1.3 | 1.5
Cc1cc(C(=O)NCc2ccncc2)nc(N2CCC(C(=O)N3CCN(C(=O)c4cnc5c(C)cccc5c4)CC3)CC2)n1 [X21429] | 1.6 | – | 2.3 | 3.8 | 18 | >57 | 17 | 8.8 | >57
